Source: patent publication US20240246956A1, “CLASS IIA HISTONE DEACETYLASE (HDAC) DEGRADER LIGANDS AND METHODS OF USE THEREOF” (DANA-FARBER CANCER INSTITUTE, INC., priority 2021, published 2024)

Columns and labels:
class IIa HDACs [1] = test: Global quantitative proteomics, change in protein abundance in Kelly cells; type: cell-based, human; settings: 5 hours, vs DMSO, moderated t-test
Protocol: (§1) Cells were washed once with phosphate-buffered saline (PBS), harvested with CellstripperTM (Corning®), washed two additional times with PBS and snap frozen in liquid nitrogen. […] Proteins were precipitated using methanol/chloroform in Donovan et al., Elife 7:e38430 (2018). The precipitated protein was resuspended in 4 M Urea, 50 mM HEPES pH 7.4, followed by dilution to 1 M urea with the addition of 200 mM EPPS, pH 8. Proteins were first digested with LysC (1:50: enzyme:protein) for 12 hours at room temperature. The LysC digestion was diluted to 0.5 M Urea with 200 mM EPPS pH 8 followed by digestion with trypsin (1:50: enzyme:protein) for 6 hours at 37° C. Tandem mass tag (TMT) reagents (Thermo Fisher Scientific) were dissolved in anhydrous acetonitrile (ACN) according to manufacturer's instructions. Anhydrous ACN was added to each peptide sample to a final concentration of 30% v/v, and labeling was induced with the addition of TMT reagent to each sample at a ratio of 1:4 peptide:TMT label. The 11-plex labeling reactions were performed for 1.5 hours at room temperature and the reaction quenched by the addition of hydroxylamine to a final concentration of 0.3% for 15 minutes at room temperature. The sample channels were combined at a 1:1 ratio, desalted using C18 solid phase extraction cartridges (Waters®) and analyzed by LC-MS for channel ratio comparison. Samples were then combined using the adjusted volumes determined in the channel ratio analysis and dried down in a speed vacuum. The combined sample was then resuspended in 1% formic acid, and acidified (pH 2-3) before being subjected to desalting with C18 SPE (Sep-Pak®-, Waters®). […] Proteome Discoverer 2.2 (Thermo Fisher Scientific) was used for .RAW file processing and controlling peptide and protein level false discovery rates, assembling proteins from peptides, and protein quantification from peptides. […] TMT reporter ion intensities were measured using a 0.003 Da window around the theoretical m/z for each reporter ion in the MS3 scan. […]

class IIa HDACs [2] = test: Global quantitative proteomics, change in protein abundance in MM.1S cells; type: cell-based, human; settings: 1 μM, 5-hour treatment, vs DMSO, moderated t-test, FIG. 5
Protocol: as §1, with “Tandem mass tag (TMT) reagents (Thermo Fisher Scientific) were dissolved in anhydrous acetonitrile (ACN) according to manufacturer's instructions. Anhydrous ACN was added to each peptide sample to a final concentration of 30% v/v, and labeling was induced with the addition of TMT reagent to each sample at a ratio of 1:4 peptide:TMT label. The 11-plex labeling reactions were performed for 1.5 hours at room temperature and the reaction quenched by the addition of hydroxylamine to a final concentration of 0.3% for 15 minutes at room temperature.” left out, “vacuum.” for “vacuum. The combined sample was then resuspended in 1% formic acid, and acidified (pH 2-3) before being subjected to desalting with C18 SPE (Sep-Pak®-, Waters®).”

HDAC7 = target: T1, HDAC7 (Homo sapiens, UniProt Q8WUI4); test: Global quantitative proteomics, change in protein abundance in Kelly cells; type: cell-based; set-up: endogenous in cells; host or cells: Kelly cells; settings: 5-hour treatment, vs DMSO, FIG. 3
T1 sequence (Q8WUI4 1-952): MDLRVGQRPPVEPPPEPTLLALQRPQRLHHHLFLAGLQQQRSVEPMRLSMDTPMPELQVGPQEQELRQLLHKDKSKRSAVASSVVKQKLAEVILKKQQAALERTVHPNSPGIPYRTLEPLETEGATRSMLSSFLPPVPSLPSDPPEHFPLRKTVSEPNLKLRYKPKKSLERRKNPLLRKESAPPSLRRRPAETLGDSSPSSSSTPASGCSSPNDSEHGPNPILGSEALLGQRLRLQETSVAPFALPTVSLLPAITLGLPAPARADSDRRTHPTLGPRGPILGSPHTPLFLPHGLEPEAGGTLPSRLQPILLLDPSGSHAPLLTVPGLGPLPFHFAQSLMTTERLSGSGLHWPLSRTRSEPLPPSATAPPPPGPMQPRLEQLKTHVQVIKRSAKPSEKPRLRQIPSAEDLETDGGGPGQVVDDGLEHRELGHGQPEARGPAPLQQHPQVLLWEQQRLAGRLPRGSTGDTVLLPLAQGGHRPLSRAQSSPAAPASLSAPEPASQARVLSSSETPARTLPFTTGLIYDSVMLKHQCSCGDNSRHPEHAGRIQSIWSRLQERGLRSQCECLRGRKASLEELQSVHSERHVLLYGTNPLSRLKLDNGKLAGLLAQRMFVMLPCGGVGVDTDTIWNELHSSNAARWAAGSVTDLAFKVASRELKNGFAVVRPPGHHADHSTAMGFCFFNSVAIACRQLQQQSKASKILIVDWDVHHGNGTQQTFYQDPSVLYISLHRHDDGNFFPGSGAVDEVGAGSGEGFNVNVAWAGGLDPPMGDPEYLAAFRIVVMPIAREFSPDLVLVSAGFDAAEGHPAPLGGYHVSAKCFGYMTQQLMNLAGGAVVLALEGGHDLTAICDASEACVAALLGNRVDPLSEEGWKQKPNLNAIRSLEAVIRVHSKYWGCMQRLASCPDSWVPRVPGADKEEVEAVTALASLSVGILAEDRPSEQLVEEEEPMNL
Protocol: (§2) Cells were washed once with phosphate-buffered saline (PBS), harvested with CellstripperTM (Corning®), washed two additional times with PBS and snap frozen in liquid nitrogen. […] Proteins were precipitated using methanol/chloroform in Donovan et al., Elife 7:e38430 (2018). The precipitated protein was resuspended in 4 M Urea, 50 mM HEPES pH 7.4, followed by dilution to 1 M urea with the addition of 200 mM EPPS, pH 8. Proteins were first digested with LysC (1:50: enzyme:protein) for 12 hours at room temperature. The LysC digestion was diluted to 0.5 M Urea with 200 mM EPPS pH 8 followed by digestion with trypsin (1:50: enzyme:protein) for 6 hours at 37° C. Tandem mass tag (TMT) reagents (Thermo Fisher Scientific) were dissolved in anhydrous acetonitrile (ACN) according to manufacturer's instructions. Anhydrous ACN was added to each peptide sample to a final concentration of 30% v/v, and labeling was induced with the addition of TMT reagent to each sample at a ratio of 1:4 peptide:TMT label. The 11-plex labeling reactions were performed for 1.5 hours at room temperature and the reaction quenched by the addition of hydroxylamine to a final concentration of 0.3% for 15 minutes at room temperature. The sample channels were combined at a 1:1 ratio, desalted using C18 solid phase extraction cartridges (Waters®) and analyzed by LC-MS for channel ratio comparison. Samples were then combined using the adjusted volumes determined in the channel ratio analysis and dried down in a speed vacuum. The combined sample was then resuspended in 1% formic acid, and acidified (pH 2-3) before being subjected to desalting with C18 SPE (Sep-Pak®-, Waters®). […] The 96 resulting fractions were then pooled in a non-contiguous manner into 24 fractions and these fractions were used for subsequent mass spectrometry analysis. Data were collected using an Orbitrap FusionTM LumosTM mass spectrometer (Thermo Fisher Scientific, San Jose, CA, USA) coupled with a […] pump (Thermo Fisher Scientific). Peptides were separated on an EasySprayTM ES803.rev2 75 μm inner diameter microcapillary column (ThermoFisher Scientific). Peptides were separated using a 190 min gradient of 6-27% acetonitrile in 1.0% formic acid with a flow rate of 300 nL/min. Each analysis used an MS3-based TMT method as described in McAlister et al., Anal. Chem. 86(14):7150-7158 (2014). The data were acquired using a mass range of m/z 340-1350, resolution 120,000, automatic gain control (AGC) target 1×10^6, maximum injection time 100 ms, dynamic exclusion of 120 seconds for the peptide measurements in the Orbitrap FusionTM LumosTM mass spectrometer. Data dependent MS2 spectra were acquired in the ion trap with a normalized collision energy (NCE) set at 55%, AGC target set to 1.5×10^5 and a maximum injection time of 150 ms. MS3 scans were acquired in the Orbitrap FusionTM LumosTM mass spectrometer with a higher energy collision dissociation (HCD) set to 55%, AGC target set to 1.5×10^5, maximum injection time of 150 ms, resolution at 50,000 and with a maximum synchronous precursor selection (SPS) precursors set to 10. Proteome Discoverer 2.2 (Thermo Fisher Scientific) was used for .RAW file processing and controlling peptide and protein level false discovery rates, assembling proteins from peptides, and protein quantification from peptides. MS/MS spectra were searched against a Swissprot human database (December 2016) with both the forward and reverse sequences. […] TMT reporter ion intensities were measured using a 0.003 Da window around the theoretical m/z for each reporter ion in the MS3 scan. […] Reporter ion intensities were normalized and scaled using in-house scripts in the R framework. Statistical analysis was carried out using the limma package within the R framework as described in Ritchie et al., Nucleic Acids Res. 43(7):e47 (2015).

HDAC5 = HDAC5 (Homo sapiens, UniProt Q9UQL6); test: as above; type: cell-based; set-up: endogenous in cells; host or cells: Kelly cells; settings: 5 μM, 5-hour treatment, vs DMSO, FIG. 3
Sequence of HDAC5 (Q9UQL6 whole entry): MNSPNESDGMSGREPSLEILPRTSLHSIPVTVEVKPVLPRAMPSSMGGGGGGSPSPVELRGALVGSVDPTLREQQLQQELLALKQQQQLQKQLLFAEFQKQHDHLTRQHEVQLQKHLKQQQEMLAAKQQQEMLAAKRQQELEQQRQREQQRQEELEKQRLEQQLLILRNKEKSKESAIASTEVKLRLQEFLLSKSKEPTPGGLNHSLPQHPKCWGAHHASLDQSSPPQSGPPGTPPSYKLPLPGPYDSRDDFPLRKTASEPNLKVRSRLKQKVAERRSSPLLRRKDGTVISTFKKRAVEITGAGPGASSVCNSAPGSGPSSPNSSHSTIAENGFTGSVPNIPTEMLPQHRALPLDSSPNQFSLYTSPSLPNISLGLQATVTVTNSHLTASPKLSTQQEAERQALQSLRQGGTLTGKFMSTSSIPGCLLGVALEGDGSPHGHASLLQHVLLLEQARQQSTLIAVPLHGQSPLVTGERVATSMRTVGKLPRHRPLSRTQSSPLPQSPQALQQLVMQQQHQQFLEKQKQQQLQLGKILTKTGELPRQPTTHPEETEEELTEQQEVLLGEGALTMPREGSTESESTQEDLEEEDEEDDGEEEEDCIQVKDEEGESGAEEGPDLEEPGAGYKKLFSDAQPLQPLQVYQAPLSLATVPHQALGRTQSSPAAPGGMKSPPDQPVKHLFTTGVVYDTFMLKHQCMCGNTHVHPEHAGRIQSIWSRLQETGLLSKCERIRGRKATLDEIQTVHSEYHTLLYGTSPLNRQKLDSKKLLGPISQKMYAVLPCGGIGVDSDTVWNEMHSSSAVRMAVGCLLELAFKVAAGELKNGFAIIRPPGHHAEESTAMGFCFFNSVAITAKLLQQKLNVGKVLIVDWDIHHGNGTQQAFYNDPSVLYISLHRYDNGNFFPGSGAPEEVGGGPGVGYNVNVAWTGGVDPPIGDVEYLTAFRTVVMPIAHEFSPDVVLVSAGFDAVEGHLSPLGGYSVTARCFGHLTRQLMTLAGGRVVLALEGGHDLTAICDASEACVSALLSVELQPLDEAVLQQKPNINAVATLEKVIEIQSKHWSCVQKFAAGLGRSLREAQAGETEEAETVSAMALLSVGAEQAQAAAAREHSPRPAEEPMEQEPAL
Protocol: as §2

Structure (SMILES): CCN(CCOCCOCCC(=O)N[C@H](C(=O)N1C[C@H](O)C[C@H]1C(=O)N[C@@H](C)c1ccc(-c2scnc2C)cc1)C(C)(C)C)C[C@@H](C)NC(=O)c1ccc(-c2noc(C(F)(F)F)n2)cc1 [Compound 17]
- class IIa HDAC levels (relative protein abundance) (class IIa HDACs [1]; 1 μM, FIG. 4B-4C): significant reduction
- class IIa HDAC levels (relative protein abundance) (class IIa HDACs [2]): significant reduction
- protein expression level of HDAC7 (HDAC7; 1 μM): selective reduction in protein expression level

Structure (SMILES): O=C1CCC(N2C(=O)c3cccc(NCCN4CCC(CNC(=O)c5cccc(-c6noc(C(F)(F)F)n6)c5)(c5nc(-c6ccccc6)cs5)CC4)c3C2=O)C(=O)N1 (stereo not drawn) [Compound 3, N-((1-(2-((2-(2,6-dioxopiperidin-3-yl)-1,3-dioxoisoindolin-4-yl)amino)ethyl)-4-(4-phenylthiazol-2-yl)piperidin-4-yl)methyl)-3-(5-(trifluoromethyl)-1,2,4-oxadiazol-3-yl)benzamide]
- class IIa HDAC levels (relative protein abundance) (class IIa HDACs [1]; 5 μM, FIG. 4A): significant reduction
- protein expression level of HDAC5 (HDAC5): reduction in protein expression level
- protein expression level of HDAC7 (HDAC7; 5 μM): reduction in protein expression level
